Experimental data reported in article PMC9551036, “A selective and orally bioavailable VHL-recruiting PROTAC achieves SMARCA2 degradation in vivo” (Nature Communications, 2022).
Where “and” joins values, the source holds several entries; their conditions need not be identical. Identical values can stand only once. Like-named read-outs stand apart in the source and are kept apart here.

Experiments:
[1] = biological target: T1, VCB: PROTAC: SMARCA2^BD ternary complex (Homo sapiens, UniProt P51531); test: TR-FRET ternary complex affinity and cooperativity, SMARCA2; format: binding
T1 construct: P51531-2, residues 1373-1493 with additional N-terminal SM residues; GST (TEV site) (N); His6 (TEV site) (N, cleaved yes); made in house; host or cells: SMARCA2^BD: Escherichia coli BL21(DE3)

[2] = biological target: T2, PBRM1 BD (Homo sapiens, UniProt Q86U86); test: TR-FRET binary and ternary (PROTAC + VCB) affinity, PBRM1 bromodomain; format: binding; settings: individual replicates
T2 construct: GST (TEV site) (N); made in house; host or cells: Escherichia coli BL21(DE3)

[3] = biological target: SMARCA2 (Homo sapiens, UniProt P51531); test: SMARCA2 capillary electrophoresis protein assay in RKO cells; format: cell-based; set-up: endogenous in cells; host or cells: RKO, NCI-H1568, A549, HCT116, LU99, HCC-364, HCT-15, HCC4006, SK-N-AS; settings: mean ± SD
Experimental: 130,000–200,000 cells were seeded in 24-well plates and incubated until settled down or overnight. Compounds were dissolved in DMSO and added to cells in indicated concentrations using a digital dispenser following an optional media change. […] For SMARCA2/4 half-life determination, 150,000 or 200,000 cells were seeded in 24-well plates. […] For SMARCA2/4 re-synthesis measurements, 200,000 cells were seeded in 24-well plates. […] Medium was removed, cells were washed with PBS and lysed with 80 µl Lysis Buffer (MSD Tris Lysis Buffer (#R60TX-2) + Halt Inhibitor Cocktail (100x) + Benzonase 0.5 µL/ml). Samples were frozen at −80 °C and thawed at room temperature before use. Samples were transferred to a V-bottom plate and insoluble debris was pelleted by centrifugation for 5 min at maximum speed. The supernatant was transferred to a fresh plate. Master Mix and Ladder were prepared according to manufacturer’s instructions for 12–230 kDa Wes Separation Module, 8 × 25 capillary cartridges, Protein Simple #SM-W004 with Anti-Rabbit Detection Module for Wes, Peggy Sue or Sally Sue, Protein Simple #DM-001. 4.8 µl lysate were mixed with 1.2 µl Master Mix to achieve a protein concentration of ~0.5 µg/µl. […] Wes plates were prepared and run according to manufacturer’s instructions. Proteins were quantified with accompanying Compass Software. SMARCA2/4 protein levels were normalised to GAPDH. […] Where applicable, curves were fitted using a 4-parametric logistic model.

[4] = system: PBRM1BD5; test: TR-FRET ternary complex affinity and cooperativity, PBRM1; format: binding; settings: ratio TR-FRET EC50 / TR-FRET EC50 +VCB measured in the same run, PBRM1BD5
[5] = biological target: T3, PBRM1BD5 (Homo sapiens, UniProt P40337+Q86U86); test: as above; format: binding; settings: TR-FRET competition for PBRM1BD5, + VCB; mean ± SD; read-out: TR-FRET Ternary PBRM1BD EC50 (PROTAC + VCB)
T3 construct: GST (TEV site) (N); His6 (TEV site) (N, cleaved yes); made in house; host or cells: PBRM1^BD5: Escherichia coli BL21(DE3)

[6] = biological target: T4, (Homo sapiens, UniProt P51532); test: TR-FRET ternary complex affinity and cooperativity, SMARCA4; format: binding
T4 construct: P51532, residues 1448–1569 with additional N-terminal SM residues; GST (TEV site) (N); His6 (TEV site) (N, cleaved yes); made in house; host or cells: SMARCA4^BD: Escherichia coli BL21(DE3)

[7] = biological target: VCB: PROTAC: SMARCA4^BD ternary complex (Homo sapiens, UniProt P40337+P51532); test: as above; format: binding; set-up: P51532, residues 1448–1569 with additional N-terminal SM residues; GST (TEV site) (N); His6 (TEV site) (N, cleaved yes); made in house; host or cells: SMARCA4^BD: Escherichia coli BL21(DE3)
[8] = TR-FRET competition for SMARCA2BD, without VCB, mean ± SD, read-out: TR-FRET SMARCA2BD EC50
[9] = binary, PROTAC alone, individual replicates, read-out: SMARCA2 BD EC50
[10] = PROTAC + VCB, read-out: Ternary PBRM1 BD EC50 (PROTAC + VCB)
[11] = binary, PROTAC alone, read-out: PBRM1 EC50
[12] = binary, PROTAC alone, individual replicates, read-out: SMARCA4 BD EC50
[13] = PROTAC + VCB, individual replicates, read-out: Ternary SMARCA4 BD EC50 (PROTAC + VCB)
[14] = TR-FRET competition for SMARCA4BD, + VCB, mean ± SD, read-out: TR-FRET Ternary SMARCA4BD EC50 (PROTAC + VCB)
[15] = TR-FRET competition for SMARCA4BD, without VCB, mean ± SD, read-out: TR-FRET SMARCA4BD EC50

T1 sequence (P51531 with tags, fused parts or gaps isoform P51531-2): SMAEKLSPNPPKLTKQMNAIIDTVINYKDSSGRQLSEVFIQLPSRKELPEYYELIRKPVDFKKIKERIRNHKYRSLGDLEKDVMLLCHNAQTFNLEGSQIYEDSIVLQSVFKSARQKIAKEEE
Chain of SMARCA2 (P51531 whole entry): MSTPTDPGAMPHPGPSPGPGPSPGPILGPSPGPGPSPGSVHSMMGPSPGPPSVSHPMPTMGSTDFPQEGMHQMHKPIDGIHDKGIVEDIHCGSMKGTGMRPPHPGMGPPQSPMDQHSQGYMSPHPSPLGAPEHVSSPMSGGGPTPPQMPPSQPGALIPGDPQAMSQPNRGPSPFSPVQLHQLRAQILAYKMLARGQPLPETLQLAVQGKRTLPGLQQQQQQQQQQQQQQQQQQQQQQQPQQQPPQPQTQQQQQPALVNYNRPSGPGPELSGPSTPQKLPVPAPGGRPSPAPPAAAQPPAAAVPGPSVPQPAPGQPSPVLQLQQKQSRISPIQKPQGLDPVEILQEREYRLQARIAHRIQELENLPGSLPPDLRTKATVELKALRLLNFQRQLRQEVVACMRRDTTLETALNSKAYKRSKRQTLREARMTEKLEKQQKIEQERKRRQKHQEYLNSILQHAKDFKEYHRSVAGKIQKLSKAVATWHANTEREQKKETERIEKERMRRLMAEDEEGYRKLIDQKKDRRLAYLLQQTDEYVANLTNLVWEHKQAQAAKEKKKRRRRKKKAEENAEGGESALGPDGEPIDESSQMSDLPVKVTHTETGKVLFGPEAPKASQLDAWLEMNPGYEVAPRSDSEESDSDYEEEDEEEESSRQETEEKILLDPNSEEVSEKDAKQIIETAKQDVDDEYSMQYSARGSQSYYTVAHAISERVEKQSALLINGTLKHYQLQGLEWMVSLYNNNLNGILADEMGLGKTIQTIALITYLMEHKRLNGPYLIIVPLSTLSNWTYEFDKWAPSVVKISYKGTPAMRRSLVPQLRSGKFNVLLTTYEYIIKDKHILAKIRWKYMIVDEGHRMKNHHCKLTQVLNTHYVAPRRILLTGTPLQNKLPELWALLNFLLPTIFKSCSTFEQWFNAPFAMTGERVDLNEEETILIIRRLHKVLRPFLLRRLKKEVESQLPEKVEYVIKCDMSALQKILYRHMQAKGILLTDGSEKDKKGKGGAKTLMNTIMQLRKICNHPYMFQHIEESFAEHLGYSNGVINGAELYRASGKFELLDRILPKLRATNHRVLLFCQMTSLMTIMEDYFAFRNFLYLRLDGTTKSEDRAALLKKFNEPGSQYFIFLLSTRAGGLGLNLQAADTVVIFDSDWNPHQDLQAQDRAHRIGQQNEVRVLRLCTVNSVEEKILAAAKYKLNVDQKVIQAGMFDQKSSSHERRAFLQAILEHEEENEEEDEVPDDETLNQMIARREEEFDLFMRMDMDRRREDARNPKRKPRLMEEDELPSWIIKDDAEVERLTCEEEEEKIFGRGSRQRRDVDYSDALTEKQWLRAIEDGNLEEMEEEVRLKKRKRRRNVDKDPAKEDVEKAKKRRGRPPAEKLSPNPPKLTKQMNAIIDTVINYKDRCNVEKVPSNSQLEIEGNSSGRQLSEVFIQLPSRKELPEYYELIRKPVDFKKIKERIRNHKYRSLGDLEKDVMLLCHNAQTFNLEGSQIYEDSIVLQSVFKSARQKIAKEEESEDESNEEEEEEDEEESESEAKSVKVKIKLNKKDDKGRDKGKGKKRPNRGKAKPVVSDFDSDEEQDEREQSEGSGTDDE
T3 sequence (Q86U86 645-766): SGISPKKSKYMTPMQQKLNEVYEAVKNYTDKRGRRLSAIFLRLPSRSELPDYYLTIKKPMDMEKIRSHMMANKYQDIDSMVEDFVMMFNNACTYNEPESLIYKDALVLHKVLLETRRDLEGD
T3 sequence (P40337 54-213): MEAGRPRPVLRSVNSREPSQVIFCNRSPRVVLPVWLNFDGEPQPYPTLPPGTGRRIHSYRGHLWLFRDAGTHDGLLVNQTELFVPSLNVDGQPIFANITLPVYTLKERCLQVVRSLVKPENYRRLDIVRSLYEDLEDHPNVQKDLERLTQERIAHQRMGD
T3 sequence (Q15369 17-112 partner): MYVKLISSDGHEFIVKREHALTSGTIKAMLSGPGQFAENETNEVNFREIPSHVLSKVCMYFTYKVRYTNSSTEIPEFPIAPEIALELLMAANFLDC
T3 sequence (Q15370 1-104 partner): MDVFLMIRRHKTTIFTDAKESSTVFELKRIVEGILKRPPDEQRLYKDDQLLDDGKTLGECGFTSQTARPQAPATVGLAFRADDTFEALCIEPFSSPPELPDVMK
Chain of VCB: PROTAC: SMARCA4^BD ternary complex (P51532 1448-1569): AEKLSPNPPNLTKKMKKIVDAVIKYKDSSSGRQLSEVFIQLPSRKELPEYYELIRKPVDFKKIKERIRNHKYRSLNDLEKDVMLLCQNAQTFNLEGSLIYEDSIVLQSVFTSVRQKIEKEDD
Chain of VCB: PROTAC: SMARCA4^BD ternary complex (P40337 54-213): as the sequence (P40337 54-213) above
Chain of VCB: PROTAC: SMARCA4^BD ternary complex (Q15369 17-112 partner): as the sequence (Q15369 17-112 partner) above
Chain of VCB: PROTAC: SMARCA4^BD ternary complex (Q15370 1-104 partner): as the sequence (Q15370 1-104 partner) above
T4 sequence (P51532 1448-1569): as the sequence (P51532 1448-1569) above

**Q.** Which results are given for `Cc1ncsc1-c1ccc([C@H](CCC(C)(C)CCN2CCC(c3ccc4c(c3)n(C3CCCC3)c3nc(=O)c5c(Br)cccc5n43)CC2)NC(=O)[C@@H]2C[C@@H](O)CN2C(=O)[C@@H](NC(=O)C2(F)CC2)C(C)(C)C)cc1` [compound 30]?
**A.** EC50 [1, 8]: 260 ± 100 nM; EC50 [1, 9]: 213 nM and 176 nM and > 400 nM and 400 nM and 304 nM; EC50 [2, 10]: 4.23 nM and 6.19 nM and 8.06 nM; EC50 [2, 11]: 111 nM and 105 nM and 192 nM; DC50 ([3]; RKO (4 h)): 8 ± 2 nM; SMARCA2 Dmax ([3]; RKO (4 h)): 74 ± 5%; DC50 ([3]; RKO (18 h)): 3 ± 1 nM; SMARCA2 Dmax ([3]; RKO (18 h)): 82 ± 5%; cooperativity α (PBRM1BD) [4]: 22.4 ± 3.9; EC50 [5]: 6 ± 2 nM; EC50 [6, 12]: > 2000 nM and 564 nM and > 400 nM; EC50 [7, 13]: 88.3 nM and 118 nM and 113 nM; EC50 [7, 14]: 106 ± 16 nM

**Q.** What does the source list for `Cc1ncsc1-c1ccc([C@H](CC[C@H](C)CCN2CCC(c3ccc4c(c3)n(C3CCCC3)c3nc(=O)c5c(Br)cccc5n43)CC2)NC(=O)[C@@H]2C[C@H](O)CN2C(=O)[C@@H](NC(=O)C2(F)CC2)C(C)(C)C)cc1` [compound 12]?
**A.** EC50 [1, 8]: 203 ± 65 nM; EC50 [1, 9]: 125 nM and 272 nM and 263 nM and 154 nM; EC50 ([2]; PBRM1 EC50, binary, PROTAC alone): 67.7 nM and 82.1 nM and 74.9 nM; EC50 ([2]; Ternary PBRM1 BD EC50 (PROTAC + VCB), PROTAC + VCB): 67.9 nM and 85.8 nM and 79.7 nM; DC50 ([3]; RKO (4 h)): > 25000 nM; Dmax ([3]; RKO, RKO (18 h)): 82 ± 16%; cooperativity α (PBRM1BD) [4]: 1.0 ± 0.0; EC50 [5]: 78 ± 7 nM; EC50 [6, 15]: 347 ± 41 nM; EC50 [6, 12]: > 400 nM and 339 nM and 302 nM; EC50 [7, 13]: > 400 nM and 385 nM and 314 nM; EC50 [7, 14]: 367 ± 38 nM

**Q.** `Cc1ncsc1-c1ccc([C@H](COCCCN2CCC(c3ccc4c(c3)n(C3CCCC3)c3nc(=O)c5c(Br)cccc5n43)CC2)NC(=O)[C@@H]2C[C@@H](O)CN2C(=O)[C@@H](NC(=O)C2(F)CC2)C(C)(C)C)cc1` [compound 27] was tested. Which EC50 [1, 8] did it give?
**A.** The EC50 was 91 ± 11 nM.

**Q.** And the EC50 [1, 9]?
**A.** The EC50 was 98.5 nM and 107 nM and 101 nM (2×) and 91.6 nM and 79.8 nM and 86.9 nM and 77.2 nM and 83.6 nM.

**Q.** And the EC50 [2, 10]?
**A.** The EC50 was 2.18 nM and 2.66 nM and 2.87 nM and 2.65 nM and 2.69 nM and 3.64 nM and 3.28 nM.

**Q.** And the EC50 [2, 11]?
**A.** Its EC50 is 32.7 nM and 35.1 nM and 34.6 nM and 30.3 nM and 34.2 nM and 22.8 nM and 45.7 nM.

**Q.** What about the DC50 ([3]; RKO (4 h)) of the same compound?
**A.** The DC50 was 5 ± 2 nM.

**Q.** And the “SMARCA2 Dmax” value ([3]; RKO (4 h))?
**A.** Its value is 70 ± 7%.

**Q.** What about the DC50 ([3]; RKO (18 h)) of the same compound?
**A.** The DC50 was 2 ± 1 nM.

**Q.** What about the “SMARCA2 Dmax” value ([3]; RKO (18 h)) of the same compound?
**A.** The value was 85 ± 3%.

**Q.** What about the “cooperativity α (PBRM1BD)” value [4] of the same compound?
**A.** The value was 12.2 ± 2.8.

**Q.** What about the EC50 [5] of the same compound?
**A.** Its EC50 is 3 ± 0.5 nM.

**Q.** And the EC50 [6, 15]?
**A.** The EC50 was 193 ± 15 nM.

**Q.** What about the EC50 [6, 12] of the same compound?
**A.** The EC50 was 183 nM and 211 nM and 185 nM and 209 nM and 173 nM and 200 nM.

**Q.** And the EC50 [7, 13]?
**A.** Its EC50 is 63.8 nM and 63.4 nM and 53.1 nM and 76.7 nM and 81.7 nM and 82 nM.

**Q.** And the EC50 [7, 14]?
**A.** Its EC50 is 69 ± 12 nM.

**Q.** Which results are given for `Cc1ncsc1-c1ccc(CNC(=O)[C@@H]2C[C@H](O)CN2C(=O)[C@@H](NC(=O)C2(F)CC2)C(C)(C)C)c(OCCN2CCC(c3ccc4c(c3)n(C3CCCC3)c3nc(=O)c5c(Br)cccc5n43)CC2)c1` [compound 19]?
**A.** EC50 [1, 8]: 85 ± 7 nM; EC50 [1, 9]: 79.1 nM and 82 nM and 94.2 nM; EC50 [2, 10]: 38.5 nM and 41 nM and 40.2 nM; EC50 [2, 11]: 35.2 nM and 39.5 nM and 40.1 nM; DC50 ([3]; RKO (4 h)): > 25000 nM; DC50 ([3]; RKO (18 h)): > 25000 nM; cooperativity α (PBRM1BD) [4]: 1.0 ± 0.1; EC50 [5]: 40 ± 1 nM; EC50 [6, 15]: 158 ± 27 nM; EC50 [6, 12]: 194 nM and 151 nM and 129 nM; EC50 [7, 13]: 201 nM and 160 nM and 159 nM; EC50 [7, 14]: 173 ± 19 nM

**Q.** With `Cc1ncsc1-c1ccc([C@H](CC[C@@H](C)CCN2CCC(c3ccc4c(c3)n(C3CCCC3)c3nc(=O)c5c(Br)cccc5n43)CC2)NC(=O)[C@@H]2C[C@@H](O)CN2C(=O)[C@@H](NC(=O)C2(F)CC2)C(C)(C)C)cc1` [compound 29] as the compound, how does the EC50 [1, 8] read?
**A.** The EC50 was 201 ± 45 nM.

**Q.** What about the EC50 [1, 9] of the same compound?
**A.** The EC50 was 166 nM and 269 nM and 192 nM and 189 nM.

**Q.** And the EC50 [2, 10]?
**A.** The EC50 was 2.66 nM and 3.59 nM and 4.13 nM.

**Q.** And the EC50 [2, 11]?
**A.** Its EC50 is 66.7 nM and 78.8 nM and 115 nM.

**Q.** What about the DC50 ([3]; RKO (4 h)) of the same compound?
**A.** The DC50 was 2 ± 1 nM.

**Q.** What about the “SMARCA2 Dmax” value ([3]; RKO (4 h)) of the same compound?
**A.** Its value is 74 ± 2%.

**Q.** What about the DC50 ([3]; RKO (18 h)) of the same compound?
**A.** Its DC50 is 1 ± 0.1 nM.

**Q.** What about the “SMARCA2 Dmax” value ([3]; RKO (18 h)) of the same compound?
**A.** The value was 84 ± 4%.

**Q.** And the “cooperativity α (PBRM1BD)” value [4]?
**A.** Its value is 24.9 ± 2.4.

**Q.** And the EC50 [5]?
**A.** Its EC50 is 3 ± 1 nM.

**Q.** What about the EC50 [6, 15] of the same compound?
**A.** The EC50 was 416 ± 177 nM.

**Q.** And the EC50 [6, 12]?
**A.** The EC50 was 272 nM and 625 nM and 423 nM.

**Q.** And the EC50 [7, 13]?
**A.** Its EC50 is 49.3 nM and 72.5 nM and 61.2 nM.

**Q.** What about the EC50 [7, 14] of the same compound?
**A.** Its EC50 is 60 ± 12 nM.
